Experiment [1] addresses SARS-CoV-2 3CL protease (Severe acute respiratory syndrome coronavirus 2, UniProt P0DTD1). The experiment is described as follows: biochemical. The conditions noted are these: 50% SARS-CoV-2 3CL protease inhibitory concentration, read-out: IC50.
Experiment [2] concerns SARS-CoV-2. As to the kind of experiment: microbe, parasite or virus in culture. It is filed as cell-based. Particulars: Severe acute respiratory syndrome coronavirus 2, VeroE6/TMPRSS2, 72 h, 50% SARS-CoV-2 infected cell death inhibitory concentration, VeroE6/TMPRSS2 cells, 3 days culture.

Molecules are shown by their SMILES. Like-named read-outs stand apart in the source and are kept apart here. Bounds are passed on as bounds.

Broadly, the IC50 is the midpoint of a concentration-inhibition curve. Broadly, the EC50 is the midpoint of the concentration-response curve. A low value points to greater potency. `CCn1cc2cc(Nc3nc(=O)n(-c4cncc(Cl)c4)c(=O)n3Cc3ccc(F)c(C#N)c3)ccc2n1` [II-0566]: the half-inhibitory concentration (IC50) in experiment [1] (RapidFire MS) was 27 nM. This compound gave an EC50 in experiment [2] (CellTiter-Glo 2.0) of 898 nM.
The matching figures for `Cc1cncc(-n2c(=O)nc(Nc3ccc4nn(CC(F)(F)F)cc4c3)n(Cc3ccc(F)c(C#N)c3)c2=O)c1` [II-0567]: 8.8 nM and 650 nM.
With `Cc1cncc(-n2c(=O)nc(Nc3cc4cn(CC(F)F)nc4cc3Cl)n(Cc3cc(F)c(F)c(C#N)c3)c2=O)c1` [II-0568], the IC50 in experiment [1] (RapidFire MS) stood at 2.1 nM. In experiment [2] (CellTiter-Glo 2.0), this compound showed an EC50 of 132 nM.
The matching figures for `Cn1cnc(Cn2c(=O)nc(Nc3cc4cn(CC(F)F)nc4cc3Cl)n(Cc3cc(Cl)c(F)cc3F)c2=O)n1` [II-0569]: 4.2 nM and 419 nM.
The matching figures for `Cc1cncc(-n2c(=O)nc(Nc3ccc4nn(CC(F)F)cc4c3)n(Cc3cc(C#N)ccc3Cl)c2=O)c1` [II-0570]: 4.4 nM and 600 nM.
`Cc1cc(F)c(C#N)cc1Cn1c(Nc2ccc3nn(C)cc3c2)nc(=O)n(-c2cncc(Cl)c2)c1=O` [II-0571]: the IC50 in experiment [1] (RapidFire MS) worked out at 5.4 nM. Besides, the EC50 in experiment [2] (CellTiter-Glo 2.0) was 190 nM.
On to `Cn1cnc(Cn2c(=O)nc(Nc3cc4cn(CC(F)F)nc4cc3Cl)n(Cc3cc(F)c(F)c(Cl)c3)c2=O)n1` [II-0572], for which the IC50 in experiment [1] (RapidFire MS) turned out to be 5.6 nM. This compound also returned a 50% effective concentration (EC50) in experiment [2] (CellTiter-Glo 2.0) of 925 nM.
The matching figures for `Cc1cncc(-n2c(=O)nc(Nc3ccc4nn(C)cc4c3)n(Cc3cc(F)c(F)c(C#N)c3)c2=O)c1` [II-0573]: 6.1 nM and 340 nM.
The matching figures for `Cc1cncc(-n2c(=O)nc(Nc3cc4cn(CC(F)F)nc4cc3Cl)n(Cc3cc(F)c(F)cc3F)c2=O)c1` [II-0574]: 9.2 nM and 200 nM.
The matching figures for `Cn1cc2cc(Nc3nc(=O)n(-c4cncc(Cl)c4)c(=O)n3Cc3cc(Cl)c(F)cc3F)ccc2n1` [II-0576]: 17 nM and 530 nM.
For the compound `Cc1cncc(-n2c(=O)nc(Nc3cc4cn(CC(F)F)nc4cc3Cl)n(Cc3cc(C#N)ccc3C)c2=O)c1` [II-0577], in experiment [1] (RapidFire MS), the IC50 is 1.1 nM. In experiment [2] (CellTiter-Glo 2.0), this compound registered a 50% effective concentration (EC50) of 85 nM.
As to `COc1cncc(-n2c(=O)nc(Nc3cc4cn(C)nc4cc3Cl)n(Cc3ccc(F)c(C#N)c3)c2=O)c1` [II-0578], the concentration for half-maximal inhibition (IC50) in experiment [1] (given as class symbols) is less than 100 nM. The same compound registered an EC50 in experiment [2] (class symbols) of 1000 to 10000 nM.
`Cc1cncc(-n2c(=O)nc(Nc3cc4cn(C)nc4cc3Cl)n(Cc3cc(C#N)ccc3Cl)c2=O)c1` [II-0579]: in experiment [1] (RapidFire MS), the IC50 came to 2.1 nM. This compound yielded an EC50 in experiment [2] (CellTiter-Glo 2.0) of 67 nM.
On to `Cc1cncc(-n2c(=O)nc(Nc3cc4cn(C)nc4cc3Cl)n(Cc3cc(C#N)ccc3[N+](=O)[O-])c2=O)c1` [II-0580], for which the IC50 in experiment [1] (given as class symbols) is less than 100 nM. In experiment [2] (class symbols), this compound gave an EC50 of less than 1000 nM.
On to `Cc1cncc(-n2c(=O)nc(Nc3cc4cn(C)nc4cc3Cl)n(Cc3cc(C#N)c(F)cc3CF)c2=O)c1` [II-0581], for which, in experiment [1] (given as class symbols), the IC50 is less than 100 nM. This compound came in with an EC50 in experiment [2] (class symbols) of less than 1000 nM.
The matching figures for `Cc1cncc(-n2c(=O)nc(Nc3cc4cn(C)nc4cc3Cl)n(Cc3cc(Cl)ccc3Cl)c2=O)c1` [II-0582]: less than 100 nM and less than 1000 nM.
The matching figures for `Cc1cncc(-n2c(=O)nc(Nc3cc4cn(C)nc4cc3Cl)n(Cc3cc(C#N)c(F)cc3C(F)F)c2=O)c1` [II-0583]: less than 100 nM and less than 1000 nM.
Take `Cn1cnc(Cn2c(=O)nc(Nc3cc4cn(C)nc4cc3Cl)n(Cc3cc(Cl)c(F)c(Cl)c3)c2=O)n1` [II-0584]: the half-maximal inhibitory concentration (IC50) in experiment [1] (RapidFire MS) worked out at 4.8 nM. For the same compound, the EC50 in experiment [2] (CellTiter-Glo 2.0) is 750 nM.
In the case of `Cc1cncc(-n2c(=O)nc(Nc3cc4cn(C)nc4cc3Cl)n(Cc3cc(C#N)ccc3N)c2=O)c1` [II-0585], the IC50 in experiment [1] (given as class symbols) is less than 100 nM. Moreover, the EC50 in experiment [2] (class symbols) was in the range of 1000 to 10000 nM.
With `Cc1cncc(-n2c(=O)nc(Nc3cc4cn(CC(F)F)nc4cc3Cl)n(Cc3cc(Cl)c(F)cn3)c2=O)c1` [II-0586], in experiment [1] (given as class symbols), the IC50 is less than 100 nM. This compound also gave an EC50 in experiment [2] (class symbols) of less than 1000 nM.
The matching figures for `C=Cc1cc(Cn2c(Nc3cc4cn(C)nc4cc3Cl)nc(=O)n(-c3cncc(C)c3)c2=O)ccc1F` [II-0587]: less than 100 nM and less than 1000 nM.
Regarding `Cc1cncc(-n2c(=O)nc(Nc3cc4cn(C)nc4cc3Cl)n(Cc3cc(Cl)c(F)c(Cl)c3)c2=O)c1` [II-0588], the IC50 in experiment [1] (given as class symbols) is less than 100 nM. The half-maximal effective concentration (EC50) in experiment [2] (class symbols) was less than 1000 nM.
The matching figures for `CNc1nc2cc(Cl)c(Nc3nc(=O)n(-c4cncc(C)c4)c(=O)n3Cc3cc(Cl)c(F)cn3)cc2s1` [II-0589]: less than 100 nM and 1000 to 10000 nM.
The matching figures for `C#Cc1cc(Cn2c(Nc3cc4cn(C)nc4cc3Cl)nc(=O)n(-c3cncc(C)c3)c2=O)ccc1F` [II-0590]: less than 100 nM and less than 1000 nM.
On to `Cn1cnc(Cn2c(=O)nc(Nc3cc4cn(C)nc4cc3Cl)n(Cc3cc(Cl)ccc3Cl)c2=O)n1` [II-0591], for which the IC50 in experiment [1] (given as class symbols) was less than 100 nM. This compound also yielded an EC50 in experiment [2] (class symbols) of less than 1000 nM.
The matching figures for `Cn1cc2cc(Nc3nc(=O)n(-c4cncc(Cl)c4)c(=O)n3Cc3cc(Cl)c(F)cn3)c(Cl)cc2n1` [II-0592]: less than 100 nM and 1000 to 10000 nM.
In the case of `COc1cc(Cn2c(Nc3cc4cn(C)nc4cc3Cl)nc(=O)n(-c3cncc(C)c3)c2=O)ccc1F` [II-0593], the IC50 in experiment [1] (given as class symbols) was less than 100 nM. In experiment [2] (class symbols), this compound gave a concentration for a half-maximal effect (EC50) of 1000 to 10000 nM.
On to `Cc1cncc(-n2c(=O)nc(Nc3cc4cn(C)nc4cc3Cl)n(Cc3ccc(F)c(C4CC4)c3)c2=O)c1` [II-0595], for which the IC50 in experiment [1] (RapidFire MS) stood at 530 nM. Further, a half-maximal effect in experiment [2] (CellTiter-Glo 2.0) (EC50) was put at 8220 nM.
`Cc1cncc(-n2c(=O)nc(Nc3cc4cn(C)nc4cc3Cl)n(Cc3cc(C#N)ccc3C)c2=O)c1` [II-0596]: the IC50 in experiment [1] (RapidFire MS) was found to be 1.6 nM. A half-maximal effect in experiment [2] (CellTiter-Glo 2.0) (EC50) was put at 62 nM.
As for `Cc1cncc(-n2c(=O)nc(Nc3cc4cn(C)nc4cc3Cl)n(Cc3ccc(F)c(Br)c3)c2=O)c1` [II-0597], the IC50 in experiment [1] (given as class symbols) is less than 100 nM. In experiment [2] (class symbols), the EC50 is less than 1000 nM.
The matching figures for `CNc1cncc(-n2c(=O)nc(Nc3cc4cn(C)nc4cc3Cl)n(Cc3cc(C#N)c(F)cc3Cl)c2=O)c1` [II-0598]: less than 100 nM and less than 1000 nM.
On to `CNc1cncc(-n2c(=O)nc(Nc3cc4cn(C)nc4cc3Cl)n(Cc3cc(Cl)c(F)cc3F)c2=O)c1` [II-0599], for which, in experiment [1] (given as class symbols), the 50% inhibitory concentration (IC50) is less than 100 nM. In experiment [2] (class symbols), this compound yielded an EC50 of less than 1000 nM.
The matching figures for `CNc1cncc(-n2c(=O)nc(Nc3cc4cn(C)nc4cc3Cl)n(Cc3cc(F)c(F)cc3F)c2=O)c1` [II-0600]: less than 100 nM and less than 1000 nM.
With `CNc1cncc(-n2c(=O)nc(Nc3cc4cn(C)nc4cc3Cl)n(Cc3cc(F)c(F)c(Cl)c3)c2=O)c1` [II-0601], the IC50 in experiment [1] (given as class symbols) was less than 100 nM. This compound also showed an EC50 in experiment [2] (class symbols) of less than 1000 nM.
Turning to `CNc1cncc(-n2c(=O)nc(Nc3cc4cn(C)nc4cc3Cl)n(Cc3cc(F)c(F)c(F)c3)c2=O)c1` [II-0602], the IC50 in experiment [1] (given as class symbols) is less than 100 nM. In experiment [2] (class symbols), this compound registered a half-maximal effective concentration (EC50) of less than 1000 nM.
In the case of `C#Cc1cncc(-n2c(=O)nc(Nc3ccc(OC)cc3)n(Cc3cc(F)c(F)c(F)c3)c2=O)c1` [II-0604], the IC50 in experiment [1] (RapidFire MS) turned out to be 470 nM. In experiment [2] (CellTiter-Glo 2.0), this compound displayed an EC50 of 9760 nM.
The matching figures for `Cn1cc2cc(Nc3nc(=O)n(-c4cncc(Cl)c4)c(=O)n3Cc3ccc(F)c(C#N)c3)ccc2n1` [II-0608]: 19 nM and 487 nM.
As to `Cn1cc2cc(Nc3nc(=O)n(-c4cncc(Cl)c4)c(=O)n3Cc3cc(F)c(F)c(F)c3)ccc2n1` [II-0609], the IC50 in experiment [1] (RapidFire MS) was determined as 120 nM. The response in experiment [2] (CellTiter-Glo 2.0) was half-maximal at 2040 nM (EC50).

Source of the values: patent US12559474B2, “Triazine derivatives having virus replication inhibitory activity and pharmaceutical composition comprising the same” (priority 2021, dated 2026).
